These results are taken from article PMC12933330, “Data-Driven Design of PROTAC Linkers to Improve PROTAC Cell Membrane Permeability” (JACS Au, 2026).

The test system of one data set is Caco-2 cell membranes. Set-up: method as in PROTAC-DB 3.0. To be noted: Caco-2 A-to-B; as recorded in PROTAC-DB 3.0; ref PROTAC-DB 3.0; cited from earlier work.
In a further data set the test system is Caco-2 cells. As to the kind of experiment: Caco-2 cell membrane permeability study (transcellular transport, A-to-B). In kind it is in vitro ADME. As to conditions: Caco-2, A-to-B. As to the method: (§1) KT-474 (Catalog No. E1655), NX-2127 (Catalog No. E1381), MS4078 (Catalog No. S0072), dBET6 (Catalog No. S8762), and dBET57 (Catalog No. S0137) were purchased from Selleck Chemicals (Houston, TX, USA). […] The Caco-2 cell permeability assay using these PROTACs was outsourced to Axcelead Drug Discovery Partners, Inc. (Kanagawa, Japan). Caco-2 cells (American Type Culture Collection, Manassas, VA, USA) were cultured, and a transcellular transport study was performed. The cells were cultured in Transwell 96-well permeable support (pore size 0.4 μm, 0.11 cm^2 surface area) with a polycarbonate membrane (PSHT004S5, Millipore Corporation, Bedford, MA, USA). The cells were preincubated with bovine serum albumin (BSA)-free Hank’s balanced salt solution (HBSS) in the apical compartment (75 μL) and HBSS containing 4% BSA in the basal compartment (250 μL) for 10 min at 37 °C. Subsequently, transcellular transport was initiated by the addition of BSA-free HBSS to apical compartments containing 10 μM compounds. The assay was terminated by separating each assay plate after 2 h. Aliquots (50 μL) from the basolateral compartment were mixed with acetonitrile/methanol. After centrifugation, the compound concentrations in the supernatant were measured using liquid chromatography-tandem mass spectrometry (LC–MS/MS) and a Kinetex C18 column (2.6 μm, 2.1 × 30 mm). The apparent permeabilities (P app, AtoB) of the receivers were determined. Lucifer yellow was added onto the apical compartment at a concentration of 100 μM. The P app of lucifer yellow in the wells where each test compound was evaluated was reported. The P app value of each compound in the membrane permeability test was calculated from a one-point standard curve (0.1 μM) using the following equation. Papp=C×V/T×A×C0 where C (μM) is the concentration of the test compound on the basal side after incubation (measured value); V (mL) is the volume of the basolateral compartment (0.25 mL); T (s) is the permeation experiment time (7200 s); A (cm^2) is the membrane area (0.11 cm^2); and C0 (μM) is the concentration of test compound (measured value).
A general note: Caco-2 monolayers are a common model of the intestinal barrier.

Assay in data set [1]: as above
To be noted: human; Caco-2, apical to basal, 10 μM compound, 2 h, 37 °C, 4% BSA in basal compartment; read-out: Ex. value, cell membrane permeability (Papp, AtoB). In kind it is in vitro ADME. As to the method: as §1

`Cc1sc2c(c1C)C(c1ccc(Cl)cc1)=NC(CC(=O)NCc1cn(CCCCNC(=O)COc3ccc(C4CCC(=O)NC4=O)cc3)nn1)c1nnc(C)n1-2` (stereo not drawn) [Compound 2895]: in the data set with Caco-2 cell membranes, the “experimental value of the cell membrane permeability” value is 2.14 μcm/s.
With `Cn1c(=O)n(C2CCC(=O)NC2=O)c2cccc(C#CCOC3CCN(C[C@H]4CC[C@H](n5cc(NC(=O)c6cnn7ccc(N8C[C@H]9C[C@@H]8CO9)nc67)c(C(F)F)n5)CC4)CC3)c21` (stereo partly drawn) [KT-474], the “cell membrane permeability, result in words” value with Caco-2 cells was “relatively high cell membrane permeability”. In data set [1], the Papp A→B at 2 h, 10 μM stood at 1.26 ×10⁻⁶ cm/s.
For `Cc1cc(Nc2ncc(Cl)c(Nc3ccccc3S(=O)(=O)C(C)C)n2)c(OC(C)C)cc1C1CCN(CC(=O)NCCNc2cccc3c2C(=O)N(C2CCC(=O)NC2=O)C3=O)CC1` (stereo not drawn) [MS4078], the Papp A→B at 2 h, 10 μM in data set [1] came to 0.06 ×10⁻⁶ cm/s.
In the case of `NC(=O)c1ncc(N2CCCCC2)nc1Nc1ccc(C2CCN(C[C@H]3CCN(c4ccc5c(c4)C(=O)N(C4CCC(=O)NC4=O)C5=O)C3)CC2)cc1` (stereo partly drawn) [NX-2127], the Papp A→B at 2 h, 10 μM in data set [1] was found to be 0.11 ×10⁻⁶ cm/s.
For `Cc1sc2c(c1C)C(c1ccc(Cl)cc1)=NC(CC(=O)NCCCCCCCCNC(=O)COc1cccc3c1C(=O)N(C1CCC(=O)NC1=O)C3=O)c1nnc(C)n1-2` (stereo not drawn) [dBET6], in the data set with Caco-2 cells, the “cell membrane permeability, result in words” value is reported as “relatively high cell membrane permeability”. Moreover, the Papp A→B at 2 h, 10 μM in data set [1] was 0.99 ×10⁻⁶ cm/s.
For `Cc1sc2c(c1C)C(c1ccc(Cl)cc1)=NC(CC(=O)NCCNc1cccc3c1C(=O)N(C1CCC(=O)NC1=O)C3=O)c1nnc(C)n1-2` (stereo not drawn) [dBET57], in that order: “relatively high cell membrane permeability” and 0.52 ×10⁻⁶ cm/s.
